The source of these data is paper PMC8623179, “Design and Microwave Synthesis of New (5Z) 5-Arylidene-2-thioxo-1,3-thiazolinidin-4-one and (5Z) 2-Amino-5-arylidene-1,3-thiazol-4(5H)-one as New Inhibitors of Protein Kinase DYRK1A” (Pharmaceuticals, 2021).

One experiment concerns the target T1, DYRK1A (Rattus norvegicus, UniProt Q63470).
T1 construct: GST; made in house; host or cells: Escherichia coli
Kind of experiment: DYRK1A kinase assay. Particulars: 15 μM ATP. It is filed as biochemical. The protocol:
(§1) The twenty-two (5Z) 5-arylidene-2-thioxo-1,3-thiazolidin-4-ones 3a–v and the twenty-four (5Z) 2-amino-5-arylidene-1,3-thiazolidin-4(5H)-ones 5a–x were evaluated against four different and representative in vitro kinase assays DYRK1A (dual specificity tyrosine phosphorylation regulated kinase), CK1 δ/e (caseine kinase 1), CDK5/p25 (cyclin dependant kinase), and GSK3 α/β (glycogen synthase kinase 3) to evaluate their inhibition potency. […] All the compounds were initially tested at a 10 μM concentration.
After 30-min incubation at 30 °C, the reaction was stopped by harvesting, using a FilterMate harvester (Packard), onto P81 phospho-cellulose papers (GE Healthcare, Chicago, IL, USA) which were washed in 1% phosphoric acid. Scintillation fluid was added and the radioactivity measured in a Packard counter. Blank values were subtracted and activities calculated as pmoles of phosphate incorporated for the 30-min incubation. The activities were expressed in % of the maximal activity, i.e., in the absence of inhibitors. Controls were performed with appropriate dilutions of DMSO. […]

For the next experiment, the target named is Casein kinase 1 (CK1δ/ε). Kind of experiment: CK1δ/ε kinase assay. It is filed as biochemical, porcine. The conditions noted are these: 15 μM ATP, read-out: IC50 CK1. The protocol:
as §1
(§2) After 30-min incubation at 30 °C, the reaction was stopped by harvesting, using a FilterMate harvester (Packard), onto P81 phospho-cellulose papers (GE Healthcare, Chicago, IL, USA) which were washed in 1% phosphoric acid. Scintillation fluid was added and the radioactivity measured in a Packard counter. Blank values were subtracted and activities calculated as pmoles of phosphate incorporated for the 30-min incubation. The activities were expressed in % of the maximal activity, i.e., in the absence of inhibitors. Controls were performed with appropriate dilutions of DMSO.
Casein kinase 1 (CK1δ/ε) (porcine brain, native) was assayed with 0.67 µg of CKS peptide ([…]pSAYSITA), a CK1 specific substrate obtained from Millegen (Labege, France).

A further experiment concerns the target GSK-3α/β. Kind of experiment: GSK-3α/β kinase assay. The conditions noted are these: 15 μM ATP, read-out: IC50 GSK3α/β. It is filed as biochemical, porcine. The protocol: as §1, §2
GSK-3α/β (porcine brain, native) was assayed, as described for CDK5/p25 but in Buffer A and using a GSK-3 specific substrate (GS-1: […]pEDEEE) (pS stands for phosphorylated serine). GS-1 was synthesized by Millegen (Labege, France).

In the next experiment the target is T2, CDK5/p25 (Homo sapiens, UniProt Q00535).
T2 construct: made in house
T2 sequence (Q00535 whole entry): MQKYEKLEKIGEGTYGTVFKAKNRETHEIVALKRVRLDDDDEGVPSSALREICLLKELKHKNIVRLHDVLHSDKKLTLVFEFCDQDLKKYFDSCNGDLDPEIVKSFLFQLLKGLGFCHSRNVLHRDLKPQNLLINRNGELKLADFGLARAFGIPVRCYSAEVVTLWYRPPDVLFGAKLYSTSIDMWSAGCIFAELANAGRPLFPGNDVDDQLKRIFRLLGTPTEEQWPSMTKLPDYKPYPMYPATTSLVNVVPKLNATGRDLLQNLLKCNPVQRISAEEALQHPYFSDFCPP
T2 sequence (Q15078 99-307 partner limits assumed): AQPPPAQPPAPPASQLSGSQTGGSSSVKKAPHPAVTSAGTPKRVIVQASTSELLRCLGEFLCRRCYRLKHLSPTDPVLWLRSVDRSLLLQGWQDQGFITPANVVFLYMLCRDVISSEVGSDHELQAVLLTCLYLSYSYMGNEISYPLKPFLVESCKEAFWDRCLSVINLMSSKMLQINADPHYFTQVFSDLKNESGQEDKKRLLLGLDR
The experiment in a line: CDK5/p25 kinase assay. It is filed as biochemical. Particulars: 15 μM ATP. The protocol: as §1, §2
CDK5/p25 (human, recombinant) was prepared as previously described. […] ATP (3000 Ci/mmol; 10 mCi/mL) in a final volume of 30 μL. After 30-min incubation at 30 °C, 25 μL aliquots of supernatant were spotted onto 2.5 × 3 cm pieces of Whatman P81 phospho-cellulose paper, and, 20 s later, the filters were washed five times (for at least 5 min each time) in a solution of 10 mL phosphoric acid/litter of water. The wet filters were counted in the presence of 1 mL ACS (Amersham, UK) scintillation fluid.

Where two headings read alike, the source gives them in different places.

`O=C(O)CN1C(=O)/C(=C/c2ccc3c(c2)OCO3)SC1=S` [Compound 3u, (5Z)-(5-Benzo[1,3]dioxol-5-ylmethylene-4-oxo-2-thioxo-thiazolidin-3-yl)-acetic acid]: the IC50 on DYRK1A (Table 4) was 0.16 µM; on Casein kinase 1 (CK1δ/ε) (Table 4), above 10 µM; on GSK-3α/β (Table 4) it was above 10 µM; at CDK5/p25 (Table 4), above 10 µM.

Take `O=C1NC(=S)S/C1=C\c1ccc2c(c1)OCCCO2` [Compound 3n, (5Z)-5-(3,4-Dihydro-2H-1,5-benzodioxepine-7-yl)methylene-2-thioxo-1,3-thiazolidin-4-one]: the IC50 on DYRK1A (Table 4), on Casein kinase 1 (CK1δ/ε) (Table 4), at GSK-3α/β (Table 4) and against CDK5/p25 (Table 4) was above 10 µM each time.

Take `COc1ccc(/C=C2\SC(N3CCOCC3)=NC2=O)cc1OC` [Compound 5b, (5Z)-5-(3,4-Dimethoxybenzylidene)-2-(morpholin-1-yl)-1,3-thiazol-4(5H)-one]: the IC50 against DYRK1A (Table 5), at Casein kinase 1 (CK1δ/ε) (Table 5), at GSK-3α/β (Table 5) and on CDK5/p25 (Table 5) was above 10 µM throughout.

As for `O=C1NC(=S)S/C1=C\c1ccc(O)cc1` [Compound 3e, (5Z)-5-(4-Hydroxybenzylidene)-2-thioxo-1,3-thiazolidin-4-one], the IC50 against DYRK1A (Table 4) was 0.028 µM; on Casein kinase 1 (CK1δ/ε) (Table 4), above 10 µM; at GSK-3α/β (Table 4), above 10 µM; on CDK5/p25 (Table 4), above 10 µM.

For the molecule `COc1ccc(NC2=NC(=O)/C(=C/c3ccc4c(c3)OCO4)S2)cc1` [Compound 5u, (5Z)-5-Benzo[1,3]dioxol-5-ylmethylene-2-(4-methoxy-phenylamino)-1,3-thiazol-4(5H)-one], the IC50 is 0.9 µM at DYRK1A (Table 5), above 10 µM on Casein kinase 1 (CK1δ/ε) (Table 5), above 10 µM on GSK-3α/β (Table 5) and above 10 µM against CDK5/p25 (Table 5).

Take `O=C1N=C(Nc2ccncc2)S/C1=C\c1ccc2c(c1)OCO2` [Compound 5t, (5Z)-5-Benzo[1,3]dioxol-5-ylmethylene-2-(pyridin-4-yl)amino-1,3-thiazol-4(5H)-one]: the IC50 on DYRK1A (Table 5), on Casein kinase 1 (CK1δ/ε) (Table 5), on GSK-3α/β (Table 5) and on CDK5/p25 (Table 5) was above 10 µM each time.

In the case of `O=C1N=C(N2CCOCC2)S/C1=C\c1ccc2c(c1)OCO2` [Compound 5a, (5Z)-5-(1,3-Benzodioxol-5-ylmethylene)-2-(morpholin-1-yl)-1,3-thiazol-4(5H)-one], the IC50 at DYRK1A (Table 5) was 0.63 µM; on Casein kinase 1 (CK1δ/ε) (Table 5), above 10 µM; at GSK-3α/β (Table 5) it was 7.4 µM; at CDK5/p25 (Table 5), above 10 µM.

For the molecule `O=C1N=C(N2CCN(c3ncccn3)CC2)S/C1=C\c1ccc2c(c1)OCO2` [Compound 5l, (5Z)-5-(1,3-Benzodioxol-5-ylmethylene)-2-[4-(pyrimidin-2-yl)piperazin-1-yl]-1,3-thiazol-4(5H)-one], the IC50 was 1.8 µM on DYRK1A (Table 5), above 10 µM at Casein kinase 1 (CK1δ/ε) (Table 5), above 10 µM at GSK-3α/β (Table 5) and above 10 µM against CDK5/p25 (Table 5).

In the case of `O=C(Cc1ccccc1)NN1C(=O)/C(=C/c2ccc3c(c2)OCO3)SC1=S` [Compound 3q, (5Z)-N-(5-Benzo[1,3]dioxol-5-ylmethylene-4-oxo-2-thioxo-thiazolidin-3-yl)-2-phenyl-acetamide], the IC50 at DYRK1A (Table 4), at Casein kinase 1 (CK1δ/ε) (Table 4), on GSK-3α/β (Table 4) and against CDK5/p25 (Table 4) was above 10 µM each time.

Consider `O=C1N=C(N2CCOCC2)S/C1=C\c1ccc2c(c1)CCO2` [Compound 5m, (5Z)-5-(2,3-Dihydro-benzofuran-5-ylmethylene)-2-(morpholin-4-yl)-1,3-thiazol-4(5H)-one], for which the IC50 is 0.6 µM at DYRK1A (Table 5), above 10 µM on Casein kinase 1 (CK1δ/ε) (Table 5), at least 10 µM on GSK-3α/β (Table 5) and above 10 µM at CDK5/p25 (Table 5).

Regarding `NN1C(=O)/C(=C/c2ccc3c(c2)OCO3)SC1=S` [Compound 3o, (5Z)-3-Amino-5-benzo[1,3]dioxol-5-ylmethylene-2-thioxo-thiazolidin-4-one], the IC50 against DYRK1A (Table 4), at Casein kinase 1 (CK1δ/ε) (Table 4), on GSK-3α/β (Table 4) and against CDK5/p25 (Table 4) was above 10 µM in each case.
